Data published in US20220356186A1, “PERK INHIBITING PYRROLOPYRIMIDINE COMPOUNDS” (HiberCell, Inc., priority 2019, published 2022).

Tests used:
[1] = biological target: T1, EIF2AK3 (PERK) catalytic domain (amino acids 536-1116) (Homo sapiens, UniProt Q9NZJ5); experiment: PERK in vitro activity assay (isolated), TR-FRET kinase assay; assay type: biochemical; details: isolated PERK enzyme, 1.5 μM ATP; read-out: Biochemical IC50
T1 construct: EIF2AK3 (PERK) catalytic domain (amino acids 536-1116)
T1 sequence (Q9NZJ5 536-1116): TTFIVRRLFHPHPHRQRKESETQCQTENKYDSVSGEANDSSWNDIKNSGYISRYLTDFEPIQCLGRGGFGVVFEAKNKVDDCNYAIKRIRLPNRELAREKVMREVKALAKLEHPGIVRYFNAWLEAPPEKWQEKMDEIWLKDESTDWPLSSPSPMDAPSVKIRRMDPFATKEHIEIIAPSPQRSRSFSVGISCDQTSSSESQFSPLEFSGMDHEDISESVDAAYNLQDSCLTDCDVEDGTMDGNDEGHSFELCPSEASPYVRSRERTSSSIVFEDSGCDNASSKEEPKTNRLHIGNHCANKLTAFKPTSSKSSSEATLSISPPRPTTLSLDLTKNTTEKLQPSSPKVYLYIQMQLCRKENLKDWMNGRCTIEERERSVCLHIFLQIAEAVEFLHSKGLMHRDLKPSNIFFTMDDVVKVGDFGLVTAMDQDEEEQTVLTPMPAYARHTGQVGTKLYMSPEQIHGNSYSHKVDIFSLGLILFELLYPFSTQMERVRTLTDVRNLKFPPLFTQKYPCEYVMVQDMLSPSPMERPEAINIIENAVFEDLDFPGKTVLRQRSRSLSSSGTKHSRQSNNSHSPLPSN
Outline: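 Human PERK catalytic domain (aa 536-1116) phosphorylating 100-200 nM GFP-eIF2a in 50 mM HEPES pH 7.5, 10 mM MgCl2, 1 mM EGTA, 0.01% Brij-35; enzyme-started, 45 min at room temperature. Stopped with 10 mM EDTA, 2 nM Tb-anti-phospho-eIF2a added for 90 min; IC50 from TR-FRET ratios by 4-parameter logistic fit.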

[2] = system: GFP-eIF2α in HEK293 cells; experiment: PERK cellular assay, TR-FRET in HEK293-EGFP-eIF2a cells after tunicamycin-induced ER stress; assay type: cell-based; details: HEK293-EGFP-eIF2a cells, tunicamycin 2 hours; read-out: Cellular eIF2α IC50
Outline: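 HEK293 cells stably expressing GFP-eIF2α, plated 5000 cells/well overnight, pretreated with inhibitors 30 min at 37 °C, then ER stress induced with tunicamycin […] for 2 h.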

select kinases = experiment: KINOMEscan in vitro competition binding assay for select kinases; details: for KINOMEscan competition binding, inhibition of AURKB: kinase AURKB; for KINOMEscan competition binding, inhibition of AXL: kinase AXL; for KINOMEscan competition binding, inhibition of BLK: kinase BLK; for KINOMEscan competition binding, inhibition of CAMK4: kinase CAMK4; for KINOMEscan competition binding, inhibition of CDK8: kinase CDK8; for KINOMEscan competition binding, inhibition of CDK11: kinase CDK11; for KINOMEscan competition binding, inhibition of CSF1R: kinase CSF1R; for KINOMEscan competition binding, inhibition of EIF2AK1: kinase EIF2AK1; for KINOMEscan competition binding, inhibition of EPHB6: kinase EPHB6; for KINOMEscan competition binding, inhibition of FLT3: kinase FLT3; for KINOMEscan competition binding, inhibition of HIPK4: kinase HIPK4; for KINOMEscan competition binding, inhibition of LOK: kinase LOK; for KINOMEscan competition binding, inhibition of MAP3K2: kinase MAP3K2; for KINOMEscan competition binding, inhibition of MAP3K3: kinase MAP3K3; for KINOMEscan competition binding, inhibition of MAP3K15: kinase MAP3K15; for KINOMEscan competition binding, inhibition of MEK5: kinase MEK5; for KINOMEscan competition binding, inhibition of MKNK2: kinase MKNK2; for KINOMEscan competition binding, inhibition of NEK1: kinase NEK1; for KINOMEscan competition binding, inhibition of NEK5: kinase NEK5; for KINOMEscan competition binding, inhibition of PIK3C2B: kinase PIK3C2B; for KINOMEscan competition binding, inhibition of RIOK2: kinase RIOK2; for KINOMEscan competition binding, inhibition of RIPK1: kinase RIPK1; for KINOMEscan competition binding, inhibition of RIPK2: kinase RIPK2; for KINOMEscan competition binding, inhibition of RIPK5: kinase RIPK5; for KINOMEscan competition binding, inhibition of TESK1: kinase TESK1; for KINOMEscan competition binding, inhibition of TIE2: kinase TIE2; for KINOMEscan competition binding, inhibition of TRKA: kinase TRKA; for KINOMEscan competition binding, inhibition of TRKB: kinase TRKB; for KINOMEscan competition binding, inhibition of TRKC: kinase TRKC; for KINOMEscan competition binding, inhibition of VRK2: kinase VRK2; for KINOMEscan competition binding, inhibition of YANK1: kinase YANK1; for KINOMEscan competition binding, inhibition of YANK2: kinase YANK2; for KINOMEscan competition binding, inhibition of YSK4: kinase YSK4

Row | SMILES | IC50 [1] | IC50 [2] | KINOMEscan competition binding, inhibition of AURKB (select kinases) | KINOMEscan competition binding, inhibition of AXL (select kinases) | KINOMEscan competition binding, inhibition of BLK (select kinases) | KINOMEscan competition binding, inhibition of CAMK4 (select kinases) | KINOMEscan competition binding, inhibition of CDK8 (select kinases) | KINOMEscan competition binding, inhibition of CDK11 (select kinases) | KINOMEscan competition binding, inhibition of CSF1R (select kinases) | KINOMEscan competition binding, inhibition of EIF2AK1 (select kinases) | KINOMEscan competition binding, inhibition of EPHB6 (select kinases) | KINOMEscan competition binding, inhibition of FLT3 (select kinases) | KINOMEscan competition binding, inhibition of HIPK4 (select kinases) | KINOMEscan competition binding, inhibition of LOK (select kinases) | KINOMEscan competition binding, inhibition of MAP3K2 (select kinases) | KINOMEscan competition binding, inhibition of MAP3K3 (select kinases) | KINOMEscan competition binding, inhibition of MAP3K15 (select kinases) | KINOMEscan competition binding, inhibition of MEK5 (select kinases) | KINOMEscan competition binding, inhibition of MKNK2 (select kinases) | KINOMEscan competition binding, inhibition of NEK1 (select kinases) | also measured
1 | Cc1cc(NC(=O)C(O)c2cccc(F)c2)ccc1-c1cn(C)c2ncnc(N)c12 (stereo not shown) [Example 9, N-(4-(4-amino-7-methyl-7H-pyrrolo[2,3-d]pyrimidin-5-yl)-3-methylphenyl)-2-(3-fluorophenyl)-2-hydroxyacetamide] | 1 to 25 nM | 1 to 25 nM | Inhibition (“Inhibition” refers to greater than 50% inhibition) | No inhibition | Inhibition (“Inhibition” refers to greater than 50% inhibition) | Inhibition (“Inhibition” refers to greater than 50% inhibition) | Inhibition (“Inhibition” refers to greater than 50% inhibition) | Inhibition (“Inhibition” refers to greater than 50% inhibition) | Inhibition (“Inhibition” refers to greater than 50% inhibition) | Inhibition (“Inhibition” refers to greater than 50% inhibition) | Inhibition (“Inhibition” refers to greater than 50% inhibition) | Inhibition (“Inhibition” refers to greater than 50% inhibition) | Inhibition (“Inhibition” refers to greater than 50% inhibition) | Inhibition (“Inhibition” refers to greater than 50% inhibition) | Inhibition (“Inhibition” refers to greater than 50% inhibition) | Inhibition (“Inhibition” refers to greater than 50% inhibition) | Inhibition (“Inhibition” refers to greater than 50% inhibition) | Inhibition (“Inhibition” refers to greater than 50% inhibition) | Inhibition (“Inhibition” refers to greater than 50% inhibition) | Inhibition (“Inhibition” refers to greater than 50% inhibition) | KINOMEscan competition binding, inhibition of NEK5 (select kinases): Inhibition (“Inhibition” refers to greater than 50% inhibition); KINOMEscan competition binding, inhibition of PIK3C2B (select kinases): Inhibition (“Inhibition” refers to greater than 50% inhibition); KINOMEscan competition binding, inhibition of RIOK2 (select kinases): Inhibition (“Inhibition” refers to greater than 50% inhibition); KINOMEscan competition binding, inhibition of RIPK1 (select kinases): No Inhibition (“No Inhibition” refers to less than 50% inhibition); KINOMEscan competition binding, inhibition of RIPK2 (select kinases): Inhibition (“Inhibition” refers to greater than 50% inhibition); KINOMEscan competition binding, inhibition of RIPK5 (select kinases): Inhibition (“Inhibition” refers to greater than 50% inhibition); KINOMEscan competition binding, inhibition of TESK1 (select kinases): Inhibition (“Inhibition” refers to greater than 50% inhibition); KINOMEscan competition binding, inhibition of TIE2 (select kinases): Inhibition (“Inhibition” refers to greater than 50% inhibition); KINOMEscan competition binding, inhibition of TRKA (select kinases): Inhibition (“Inhibition” refers to greater than 50% inhibition); KINOMEscan competition binding, inhibition of TRKB (select kinases): Inhibition (“Inhibition” refers to greater than 50% inhibition); KINOMEscan competition binding, inhibition of TRKC (select kinases): Inhibition (“Inhibition” refers to greater than 50% inhibition); KINOMEscan competition binding, inhibition of VRK2 (select kinases): Inhibition (“Inhibition” refers to greater than 50% inhibition); KINOMEscan competition binding, inhibition of YANK1 (select kinases): Inhibition (“Inhibition” refers to greater than 50% inhibition); KINOMEscan competition binding, inhibition of YANK2 (select kinases): Inhibition (“Inhibition” refers to greater than 50% inhibition); KINOMEscan competition binding, inhibition of YSK4 (select kinases): Inhibition (“Inhibition” refers to greater than 50% inhibition)
2 | Cc1cccc(CC(=O)N2CCc3c2ccc(-c2cn(C)c4ncnc(N)c24)c3F)n1 [GSK2656157, reference compound] | – | – | Inhibition (“Inhibition” refers to greater than 50% inhibition) | Inhibition (“Inhibition” refers to greater than 50% inhibition) | Inhibition (“Inhibition” refers to greater than 50% inhibition) | No inhibition | Inhibition (“Inhibition” refers to greater than 50% inhibition) | Inhibition (“Inhibition” refers to greater than 50% inhibition) | Inhibition (“Inhibition” refers to greater than 50% inhibition) | Inhibition (“Inhibition” refers to greater than 50% inhibition) | Inhibition (“Inhibition” refers to greater than 50% inhibition) | No Inhibition (“No Inhibition” refers to less than 50% inhibition) | No Inhibition (“No Inhibition” refers to less than 50% inhibition) | Inhibition (“Inhibition” refers to greater than 50% inhibition) | Inhibition (“Inhibition” refers to greater than 50% inhibition) | No Inhibition (“No Inhibition” refers to less than 50% inhibition) | No Inhibition (“No Inhibition” refers to less than 50% inhibition) | Inhibition (“Inhibition” refers to greater than 50% inhibition) | No Inhibition (“No Inhibition” refers to less than 50% inhibition) | No Inhibition (“No Inhibition” refers to less than 50% inhibition) | KINOMEscan competition binding, inhibition of NEK5 (select kinases): No Inhibition (“No Inhibition” refers to less than 50% inhibition); KINOMEscan competition binding, inhibition of PIK3C2B (select kinases): No Inhibition (“No Inhibition” refers to less than 50% inhibition); KINOMEscan competition binding, inhibition of RIOK2 (select kinases): Inhibition (“Inhibition” refers to greater than 50% inhibition); KINOMEscan competition binding, inhibition of RIPK1 (select kinases): Inhibition (“Inhibition” refers to greater than 50% inhibition); KINOMEscan competition binding, inhibition of RIPK2 (select kinases): No Inhibition (“No Inhibition” refers to less than 50% inhibition); KINOMEscan competition binding, inhibition of RIPK5 (select kinases): No Inhibition (“No Inhibition” refers to less than 50% inhibition); KINOMEscan competition binding, inhibition of TESK1 (select kinases): No Inhibition (“No Inhibition” refers to less than 50% inhibition); KINOMEscan competition binding, inhibition of TIE2 (select kinases): No Inhibition (“No Inhibition” refers to less than 50% inhibition); KINOMEscan competition binding, inhibition of TRKA (select kinases): Inhibition (“Inhibition” refers to greater than 50% inhibition); KINOMEscan competition binding, inhibition of TRKB (select kinases): No Inhibition (“No Inhibition” refers to less than 50% inhibition); KINOMEscan competition binding, inhibition of TRKC (select kinases): Inhibition (“Inhibition” refers to greater than 50% inhibition); KINOMEscan competition binding, inhibition of VRK2 (select kinases): Inhibition (“Inhibition” refers to greater than 50% inhibition); KINOMEscan competition binding, inhibition of YANK1 (select kinases): No Inhibition (“No Inhibition” refers to less than 50% inhibition); KINOMEscan competition binding, inhibition of YANK2 (select kinases): No Inhibition (“No Inhibition” refers to less than 50% inhibition); KINOMEscan competition binding, inhibition of YSK4 (select kinases): Inhibition (“Inhibition” refers to greater than 50% inhibition)
3 | Cc1nc(N)c2c(-c3ccc(NC(=O)C(O)c4cccc(Cl)c4)c(F)c3F)cn(C)c2n1 (stereo not shown) [Example 112, N-(4-(4-amino-2,7-dimethyl-7H-pyrrolo[2,3-d]pyrimidin-5-yl)-2,3-difluorophenyl)-2-(3-chlorophenyl)-2-hydroxyacetamide] | 101 to 250 nM | 501 to 1000 nM | – | – | – | – | – | – | – | – | – | – | – | – | – | – | – | – | – | – | –
4 | Cc1nc(N)c2c(-c3ccc(NC(=O)C(O)c4cccc(F)c4)c(F)c3F)cn(C)c2n1 (single isomer, unassigned) [Example 109, N-(4-(4-amino-2,7-dimethyl-7H-pyrrolo[2,3-d]pyrimidin-5-yl)-2,3-difluorophenyl)-2-(3-fluorophenyl)-2-hydroxyacetamide] | 251 to 500 nM | 1000 to 2000 nM | – | – | – | – | – | – | – | – | – | – | – | – | – | – | – | – | – | – | –
5 | Cc1nc(N)c2c(-c3ccc(NC(=O)C(O)c4cccc(C(F)(F)F)c4)cc3C)cn(C)c2n1 (stereo not shown) [Example 49, N-(4-(4-amino-2,7-dimethyl-7H-pyrrolo[2,3-d]pyrimidin-5-yl)-3-methylphenyl)-2-hydroxy-2-(3-(trifluoromethyl)phenyl)acetamide] | 1 to 25 nM | 26 to 50 nM | – | – | – | – | – | – | – | – | – | – | – | – | – | – | – | – | – | – | –
6 | Cc1nc(N)c2c(-c3ccc(NC(=O)C(O)c4cccc(F)c4)c(F)c3C)cn(C)c2n1 (stereo not shown) [Example 12, N-(4-(4-amino-2,7-dimethyl-7H-pyrrolo[2,3-d]pyrimidin-5-yl)-2-fluoro-3-methylphenyl)-2-(3-fluorophenyl)-2-hydroxyacetamide] | 1 to 25 nM | 1 to 25 nM | – | – | – | – | – | – | – | – | – | – | – | – | – | – | – | – | – | – | –
